Source: the NIST ThermoML archive (doi:10.1016/j.jct.2006.08.011)
Numbers after ± are expanded uncertainties.

What was measured:
[1] = 298.15 K; 101.33 kPa; Liquid
[2] = refractive index (Na D-line) (dimensionless); conditions: 298.15 K; 101.33 kPa; Liquid; Standard Abbe refractometry
[3] = xn = mol fraction of the nth substance listed; conditions: 298.15 K, Liquid
[4] = refractive index (Na D-line) (dimensionless); xn = mol fraction of the nth substance listed; conditions: 298.15 K, 101.3 kPa, Liquid, Standard Abbe refractometry
[5] = excess molar enthalpy (molar enthalpy of mixing); xn = mol fraction of the nth substance listed; conditions: 298.15 K, 101 kPa, Liquid

CCCOC(=O)CC [propyl propanoate]
Conditions	mass density [kg/m3]	refractive index
[1]	875.48 ± 0.64	–
[2]	–	1.3906 ± 0.0004

Cc1ccccc1 [toluene]
Conditions	mass density [kg/m3]	refractive index
[1]	862.11 ± 0.18	–
[2]	–	1.4941 ± 0.0004

CCCCCC [hexane]
Conditions	mass density [kg/m3]	refractive index
[1]	654.68 ± 0.7	–
[2]	–	1.3723 ± 0.0004

CCCCCC [hexane] + Cc1ccccc1
[3], 101 kPa
Conditions	mass density [kg/m3]
x1 = 0.0524	848.99 ± 0.37
x1 = 0.0926	839.12 ± 0.39
x1 = 0.1636	822.1 ± 0.41
x1 = 0.2011	813.3 ± 0.43
x1 = 0.2475	802.64 ± 0.45
x1 = 0.3184	786.7 ± 0.48
x1 = 0.4088	767.06 ± 0.51
x1 = 0.4739	753.36 ± 0.53
x1 = 0.5096	746 ± 0.55
x1 = 0.5734	733.08 ± 0.56
x1 = 0.6086	726.13 ± 0.57
x1 = 0.6754	713.16 ± 0.59
x1 = 0.7338	702.09 ± 0.61
x1 = 0.7827	693.01 ± 0.62
x1 = 0.8426	682.13 ± 0.64
x1 = 0.9055	670.97 ± 0.66
x1 = 0.9323	666.29 ± 0.67

Conditions	excess molar enthalpy [kcal/mol]	refractive index
[4], x1 = 0.0543	–	1.486 ± 0.0007
[4], x1 = 0.0958	–	1.4801 ± 0.0007
[4], x1 = 0.1667	–	1.4701 ± 0.0007
[4], x1 = 0.2129	–	1.4637 ± 0.0007
[4], x1 = 0.2818	–	1.4541 ± 0.0007
[4], x1 = 0.3261	–	1.4482 ± 0.0007
[4], x1 = 0.3762	–	1.4417 ± 0.0007
[4], x1 = 0.4262	–	1.4353 ± 0.0007
[4], x1 = 0.4769	–	1.429 ± 0.0007
[4], x1 = 0.5136	–	1.4246 ± 0.0007
[4], x1 = 0.5742	–	1.4174 ± 0.0007
[4], x1 = 0.6327	–	1.4107 ± 0.0007
[4], x1 = 0.6862	–	1.4047 ± 0.0007
[4], x1 = 0.7402	–	1.3987 ± 0.0007
[4], x1 = 0.7958	–	1.3927 ± 0.0007
[4], x1 = 0.8548	–	1.3866 ± 0.0007
[4], x1 = 0.9106	–	1.381 ± 0.0007
[4], x1 = 0.9409	–	1.378 ± 0.0007
[5], x1 = 0.0525	0.0294 ± 0.000956	–
[5], x1 = 0.0957	0.0507 ± 0.00146	–
[5], x1 = 0.1586	0.0756 ± 0.00206	–
[5], x1 = 0.2119	0.0935 ± 0.00263	–
[5], x1 = 0.2672	0.109 ± 0.00287	–
[5], x1 = 0.3135	0.118 ± 0.00311	–
[5], x1 = 0.3766	0.126 ± 0.00335	–
[5], x1 = 0.4264	0.13 ± 0.00335	–
[5], x1 = 0.4723	0.131 ± 0.00335	–
[5], x1 = 0.5414	0.128 ± 0.00335	–
[5], x1 = 0.6641	0.115 ± 0.00311	–
[5], x1 = 0.6927	0.109 ± 0.00287	–
[5], x1 = 0.7484	0.0939 ± 0.00263	–
[5], x1 = 0.8045	0.0779 ± 0.00213	–
[5], x1 = 0.8657	0.0576 ± 0.00163	–
[5], x1 = 0.9023	0.0438 ± 0.00129	–

CCCOC(=O)CC [propyl propanoate] + Cc1ccccc1
[3], 101.3 kPa
Conditions	mass density [kg/m3]
x1 = 0.0625	863.5 ± 0.35
x1 = 0.1072	864.46 ± 0.35
x1 = 0.1826	865.94 ± 0.35
x1 = 0.2232	866.69 ± 0.36
x1 = 0.2747	867.57 ± 0.36
x1 = 0.3426	868.66 ± 0.37
x1 = 0.4514	870.21 ± 0.38
x1 = 0.4907	870.73 ± 0.38
x1 = 0.5441	871.41 ± 0.39
x1 = 0.5833	871.86 ± 0.39
x1 = 0.6451	872.53 ± 0.4
x1 = 0.7066	873.14 ± 0.41
x1 = 0.7346	873.41 ± 0.42
x1 = 0.7898	873.9 ± 0.43
x1 = 0.8508	874.42 ± 0.44
x1 = 0.9037	874.81 ± 0.45
x1 = 0.956	875.2 ± 0.46

Conditions	excess molar enthalpy [kcal/mol]	refractive index
[4], x1 = 0.0625	–	1.4858 ± 0.0007
[4], x1 = 0.1072	–	1.4803 ± 0.0007
[4], x1 = 0.1826	–	1.4712 ± 0.0007
[4], x1 = 0.2232	–	1.4665 ± 0.0007
[4], x1 = 0.2747	–	1.4605 ± 0.0007
[4], x1 = 0.3426	–	1.4529 ± 0.0007
[4], x1 = 0.4514	–	1.4411 ± 0.0007
[4], x1 = 0.4907	–	1.437 ± 0.0007
[4], x1 = 0.5441	–	1.4316 ± 0.0007
[4], x1 = 0.5833	–	1.4277 ± 0.0007
[4], x1 = 0.6451	–	1.4218 ± 0.0007
[4], x1 = 0.7066	–	1.416 ± 0.0007
[4], x1 = 0.7346	–	1.4135 ± 0.0007
[4], x1 = 0.7898	–	1.4085 ± 0.0007
[4], x1 = 0.8508	–	1.4031 ± 0.0007
[4], x1 = 0.9037	–	1.3986 ± 0.0007
[4], x1 = 0.956	–	1.3942 ± 0.0007
[5], x1 = 0.0547	-0.0102 ± 0.00105	–
[5], x1 = 0.1357	-0.0223 ± 0.00143	–
[5], x1 = 0.1718	-0.0263 ± 0.00155	–
[5], x1 = 0.2389	-0.0336 ± 0.00177	–
[5], x1 = 0.2823	-0.0365 ± 0.00186	–
[5], x1 = 0.3263	-0.0399 ± 0.00198	–
[5], x1 = 0.3957	-0.0421 ± 0.00206	–
[5], x1 = 0.4277	-0.0421 ± 0.00206	–
[5], x1 = 0.5486	-0.0378 ± 0.00191	–
[5], x1 = 0.5841	-0.0361 ± 0.00186	–
[5], x1 = 0.6522	-0.0328 ± 0.00177	–
[5], x1 = 0.709	-0.0293 ± 0.00165	–
[5], x1 = 0.7394	-0.0271 ± 0.00158	–
[5], x1 = 0.8031	-0.0228 ± 0.00146	–
[5], x1 = 0.8568	-0.0183 ± 0.00131	–
[5], x1 = 0.892	-0.0131 ± 0.00115	–
[5], x1 = 0.9577	-0.00583 ± 0.000932	–
